From patent US10670605B2, “Cysteine reactive probes and uses thereof” (The Scripps Research Institute, priority 2015, dated 2020)
Counter-ions that a name gives are not always drawn.

Legend:
Assay in all cases: isoTOP-ABPP of compound-treated primary human T cells
Format in all cases: cell-based
[1] = target: T1, Cys residues in primary human T cells (Homo sapiens, UniProt Q16548)
T1 sequence (Q16548 1-175): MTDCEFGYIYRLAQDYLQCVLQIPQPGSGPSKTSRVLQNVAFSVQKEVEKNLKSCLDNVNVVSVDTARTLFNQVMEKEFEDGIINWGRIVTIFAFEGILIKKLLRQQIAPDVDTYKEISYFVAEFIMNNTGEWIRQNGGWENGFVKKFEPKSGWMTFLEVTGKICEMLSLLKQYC

[2] = target: T2, Cys residues in primary human T cells (Homo sapiens, UniProt Q9NRG0); conditions: CHRAC1 C55 (Q9NRG0)
T2 sequence (Q9NRG0 1-131): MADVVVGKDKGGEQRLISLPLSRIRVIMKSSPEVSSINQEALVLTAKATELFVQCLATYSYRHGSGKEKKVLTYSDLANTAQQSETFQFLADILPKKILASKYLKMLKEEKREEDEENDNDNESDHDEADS

[3] = target: T3, Cys residues in primary human T cells (Homo sapiens, UniProt Q6IA69); conditions: NADSYN1 C428 (Q6IA69)
T3 sequence (Q6IA69 1-706): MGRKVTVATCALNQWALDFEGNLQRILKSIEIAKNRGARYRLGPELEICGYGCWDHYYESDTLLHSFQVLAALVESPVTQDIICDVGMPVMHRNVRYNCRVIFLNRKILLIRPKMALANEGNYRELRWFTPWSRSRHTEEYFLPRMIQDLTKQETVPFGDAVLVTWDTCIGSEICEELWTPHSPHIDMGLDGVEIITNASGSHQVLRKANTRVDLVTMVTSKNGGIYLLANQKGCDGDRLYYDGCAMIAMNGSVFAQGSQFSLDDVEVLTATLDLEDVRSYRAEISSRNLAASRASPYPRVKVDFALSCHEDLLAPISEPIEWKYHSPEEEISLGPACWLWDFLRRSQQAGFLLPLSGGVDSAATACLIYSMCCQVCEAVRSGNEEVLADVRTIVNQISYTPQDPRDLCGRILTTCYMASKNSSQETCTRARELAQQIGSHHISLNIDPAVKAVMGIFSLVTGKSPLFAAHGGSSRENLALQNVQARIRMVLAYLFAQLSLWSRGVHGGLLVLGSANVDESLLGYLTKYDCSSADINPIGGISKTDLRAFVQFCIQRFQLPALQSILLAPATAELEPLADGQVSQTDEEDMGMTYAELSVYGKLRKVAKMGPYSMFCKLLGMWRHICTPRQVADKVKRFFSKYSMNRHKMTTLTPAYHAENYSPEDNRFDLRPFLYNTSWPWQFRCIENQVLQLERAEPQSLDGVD

[4] = target: T4, Cys residues in primary human T cells (Homo sapiens, UniProt Q15306); conditions: IRF4 C194 (Q15306)
T4 sequence (Q15306 1-451): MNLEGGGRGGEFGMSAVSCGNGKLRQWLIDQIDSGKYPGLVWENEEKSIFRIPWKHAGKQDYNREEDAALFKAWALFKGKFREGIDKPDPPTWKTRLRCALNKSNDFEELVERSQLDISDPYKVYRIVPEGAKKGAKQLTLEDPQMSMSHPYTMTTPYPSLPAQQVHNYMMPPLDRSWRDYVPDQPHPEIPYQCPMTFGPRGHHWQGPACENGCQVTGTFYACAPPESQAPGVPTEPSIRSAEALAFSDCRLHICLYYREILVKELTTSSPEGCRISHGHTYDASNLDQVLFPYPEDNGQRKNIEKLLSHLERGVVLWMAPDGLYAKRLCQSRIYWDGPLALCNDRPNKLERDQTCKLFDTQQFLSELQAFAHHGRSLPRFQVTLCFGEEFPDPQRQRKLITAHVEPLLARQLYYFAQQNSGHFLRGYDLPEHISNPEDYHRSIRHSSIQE

[5] = target: T5, Cys residues in primary human T cells (Homo sapiens, UniProt O14920); conditions: IKBKB C464 (O14920)
T5 sequence (O14920 1-756): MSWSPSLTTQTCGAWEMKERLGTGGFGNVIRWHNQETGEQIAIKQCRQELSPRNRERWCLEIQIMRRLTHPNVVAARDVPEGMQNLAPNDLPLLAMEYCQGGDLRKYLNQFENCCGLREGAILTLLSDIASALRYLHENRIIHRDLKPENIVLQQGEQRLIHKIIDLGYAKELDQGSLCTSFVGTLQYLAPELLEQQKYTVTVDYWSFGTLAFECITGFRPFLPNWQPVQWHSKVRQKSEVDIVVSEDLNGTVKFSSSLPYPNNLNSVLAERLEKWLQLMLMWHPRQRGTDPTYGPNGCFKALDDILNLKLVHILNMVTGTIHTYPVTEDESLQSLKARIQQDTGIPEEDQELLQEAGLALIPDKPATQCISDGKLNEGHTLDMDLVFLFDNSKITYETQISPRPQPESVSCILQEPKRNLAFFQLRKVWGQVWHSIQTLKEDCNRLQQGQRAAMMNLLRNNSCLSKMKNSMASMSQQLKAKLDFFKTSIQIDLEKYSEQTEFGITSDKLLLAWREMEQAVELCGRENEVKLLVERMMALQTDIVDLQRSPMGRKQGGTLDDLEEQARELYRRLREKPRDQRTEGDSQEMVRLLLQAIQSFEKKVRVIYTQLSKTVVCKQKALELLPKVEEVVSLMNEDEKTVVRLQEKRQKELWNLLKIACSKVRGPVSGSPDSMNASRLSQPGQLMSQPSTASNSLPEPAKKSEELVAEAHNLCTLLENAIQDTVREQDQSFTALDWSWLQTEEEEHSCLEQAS

COC(=O)/C=C/C(=O)OC [DMF, dimethyl fumarate]
R value (DMSO/DMF) ([1]; BCL2A1 C19 (Q16548), DMF 10 μM 4h): 1,15 | R value (DMSO/DMF) ([1]; BCL2A1 C19 (Q16548), DMF 25 μM 4h): 2.19 | R value (DMSO/DMF) ([1]; BCL2A1 C19 (Q16548), DMF 50 μM 2h): 2.09 | R value (DMSO/DMF) ([1]; BCL2A1 C19 (Q16548), DMF 50 μM 4h): 4.16 | R value (DMSO/DMF) ([1]; BCL2A1 C55 (Q16548), DMF 50 μM 4h): 7.18 | R value (DMSO/DMF) ([2]; DMF 10 μM 4h): 5.07 | R value (DMSO/DMF) ([2]; DMF 50 μM 1h): 12.59 | R value (DMSO/DMF) ([2]; DMF 50 μM 2h): 11.72 | R value (DMSO/DMF) ([3]; DMF 10 μM 4h): 1.43 | R value (DMSO/DMF) ([3]; DMF 50 μM 1h): 1.81 | R value (DMSO/DMF) ([3]; DMF 50 μM 2h): 2.31 | R value (DMSO/DMF) ([3]; DMF 50 μM 4h): 20 | R value (DMSO/DMF) ([4]; DMF 10 μM 4h): 1.69 | R value (DMSO/DMF) ([4]; DMF 25 μM 4h): 1.78 | R value (DMSO/DMF) ([4]; DMF 50 μM 1h): 1.32 | R value (DMSO/DMF) ([4]; DMF 50 μM 2h): 3.13 | R value (DMSO/DMF) ([4]; DMF 50 μM 4h): 5.25 | R value (DMSO/DMF) ([5]; DMF 10 μM 4h): 2.59 | R value (DMSO/DMF) ([5]; DMF 50 μM 1h): 3.96 | R value (DMSO/DMF) ([5]; DMF 50 μM 2h): 10.12 | R value (DMSO/DMF) ([5]; DMF 50 μM 4h): 20
